The text below walks through data of patent US20120328525A1, “NANOPARTICLE COMPOSITIONS AND COMPONENTS THEREOF” (priority 2011, published 2012).

This experiment concerns axillary sweating. Description: Placebo-controlled blinded clinical study, gravimetric sweat measurement (Examples 5-10). Type of experiment: in vivo, human. The note with it: for percent of subjects with at least a 30% reduction in sweat production vs Baseline / average reduction in sweat production by gravimetric sweat measurement: two weeks after single topical treatment; for average reduction in sweat production by gravimetric sweat measurement: 0.3 mL/axilla; for greater reduction in sweat production than control (placebo) group / greater effectiveness in reducing sweat production than placebo (responder rate): two weeks after treatment; for greater reduction in sweat production than control (placebo) group: placebo 53 mg; for greater effectiveness in reducing sweat production than placebo (responder rate): placebo 29% responders. The text has this: The purpose of the study was to determine if Emulsion H is biologically active in reducing sweating. […] Some subjects received treatment with the potentially biologically active formulation and some subjects received treatment with a placebo, i.e. water. Neither the subject nor the investigator knew which treatment the subject was receiving.
Two weeks after a single treatment, subjects were re-assessed by gravimetric sweat measurement to determine the degree of sweat reduction. A comparison of post-treatment sweat production between the treatment groups was made to determine the degree of sweat reduction by the potentially biologically active formulation.
The sweat production of the subject is measured gravimetrically by the following procedure: • The subject was placed in a room with relatively constant temperature and humidity for at least 30 min. • The subject was placed in a semi-reclining position with the axilla fully exposed and the arm resting comfortably above the head. • The subject's axilla was dried gently with a cotton gauze pad. • The investigator used a forceps to place one filter paper (90 mm diameter) on a balance sensitive to 0.1 mg and recorded its weight. • The investigator used a forceps to place the measured filter paper on the axilla, covered it with plastic and taped the edges of the bag against the subject's skin with hypoallergenic tape to form a seal around the plastic bag. • After 5 minutes, the investigator gently removed the tape and plastic from the subject's axilla and then, using forceps, immediately placed the filter paper onto the scale to record its weight. The scale was then dried and zero balanced. • This measurement was then repeated as described above with the other axilla.
If the subject was eligible for treatment on this basis, the subject was then treated. For treatment, one of the study preparations (0.3 mL/axilla) was applied topically with a gloved finger by the investigator to the subject's skin of the axilla. Emulsion H contained 19.2 mg Labrafac Lipophile WL 1349 and 28.8 mg Polysorbate 80, NF, in addition to 0.9% Sodium Chloride Irrigation, USP, and Gelatin Phosphate Buffer. The average diameter (e.g., particle size) of nanoparticles contained in the Emusion H empty nanoparticle composition was approximately 80.1 nm. The preparation was administered in small increments to avoid run-off. The liquid was rubbed-in until vanished.
The subject was scheduled for a follow-up office visit two weeks after the treatment. At the follow-up office visit, the subject was questioned as to their compliance with the instructions regarding which medications not to use between treatment and the two week follow-up office visit. If the subject was non-compliant, the subject was disqualified from the study. If the subject was compliant, the subject was re-assessed using the gravimetric sweat measurement procedure.
The purpose of the study was to determine if Emulsion V is biologically active in reducing sweating. […] Some subjects received treatment with the potentially biologically active formulation and some subjects received treatment with a placebo, i.e. water. Neither the subject nor the investigator knew which treatment the subject was receiving.
If the subject was eligible for treatment on this basis, the subject was then treated. For treatment, one of the study preparations (0.3 mL/axilla) was applied topically with a gloved finger by the investigator to the subject's skin of the axilla. Emulsion V contained Emulsifying Wax, Gelatin Phosphate Buffer Solution, Isopropyl Myristate, Labrafac Lipophile, Methylparaben, Mineral Oil Heavy Viscosity Range, Polysorbate 80, Propylparaben, Purified Water, Sodium Chloride Injection, and White Petrolatum. All ingredients are either NF or USP grade. The average diameter (e.g., particle size) of nanoparticles contained in the Emusion V empty nanoparticle composition was approximately 77.1 nm. The preparation was administered in small increments to avoid run-off. […]

With Polysorbate 80, the “percent of subjects with at least a 30% reduction in sweat production vs Baseline” value was determined as 80%, the “average reduction in sweat production by gravimetric sweat measurement” value (“average reduction in sweat production” for short) was 159 mg, the “greater reduction in sweat production than control (placebo) group” value (“greater reduction” below) came out at 300% and the “greater effectiveness in reducing sweat production than placebo (responder rate)” value turned out to be 280%.
Consider `CCCCCCCCCCCCCC(=O)OC(C)C` [Isopropyl Myristate], for which the “percent of subjects with at least a 30% reduction in sweat production vs Baseline” value is recorded as 55%, the “average reduction in sweat production” value stood at 103 mg, the “greater reduction” value was found to be 195% and the “greater effectiveness in reducing sweat production than placebo (responder rate)” value is recorded as 191%.
As to `CCCOC(=O)c1ccc(O)cc1` [Propylparaben], the “percent of subjects with at least a 30% reduction in sweat production vs Baseline” value is given as 70%, the “average reduction in sweat production” value amounted to 177 mg, the “greater reduction” value worked out at 337% and the “greater effectiveness in reducing sweat production than placebo (responder rate)” value is given as 245%.
